Where a name gives a salt, the structure may show the parent alone.
What was measured:
5-HT1A receptors = target: T1, 5-HT1A receptors (Rattus norvegicus, UniProt P19327); test: 5-HT1A receptor binding experiment; conditions: isolated frontal cortex membrane preparation of rats, tritiated 8-OH-DPAT ligand, 25° C., 30 minutes
T1 construct: from tissue; host or cells: rat frontal cortex membrane preparation
T1 sequence (P19327 1-422): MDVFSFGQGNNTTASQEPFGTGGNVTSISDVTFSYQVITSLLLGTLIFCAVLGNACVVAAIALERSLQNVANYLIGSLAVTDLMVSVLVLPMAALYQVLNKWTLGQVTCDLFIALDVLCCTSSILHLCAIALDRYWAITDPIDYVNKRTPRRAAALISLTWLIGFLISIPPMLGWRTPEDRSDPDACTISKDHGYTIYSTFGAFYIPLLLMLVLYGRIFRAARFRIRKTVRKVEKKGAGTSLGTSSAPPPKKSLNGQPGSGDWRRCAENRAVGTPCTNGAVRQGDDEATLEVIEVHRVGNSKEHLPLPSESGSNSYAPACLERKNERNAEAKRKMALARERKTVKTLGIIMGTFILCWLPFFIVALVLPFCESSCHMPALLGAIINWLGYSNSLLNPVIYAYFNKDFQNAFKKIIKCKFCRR
Description: Binding of the compounds of the general Formula (I) to 5-HT1A receptors was investigated according to the method of Peroutka (S. J. Peroutka: J. Neurochem. 47, p. 529 (1986)).
Receptor bindings were determined from isolated frontal cortex membrane preparation of rats by using tritiated 8-hydroxy-N,N-dipropyl-2-amino-tetraline (8-OH-DPAT) ligand. For the determination of non-specific binding 10 μM serotonin creatinine sulfate was used. The following conditions were applied: incubation […] volume: 250 μl, incubation temperature: 25° C., incubation time: 30 minutes. The reaction was terminated by the addition of 9 ml of 50 mM ice-cold TRIS-HCl buffer (pH=7.7) and quick vacuum filtration using Whatman GFIB fibreglass filtering paper. Radioactivity of the filter boards was measured with the aid of a liquid scintillation spectrometer.
IC50 is the concentration whereby the difference between whole binding and non-specific binding in the presence of 10 μM serotonin creatinine sulfate is 50%. The compounds with an IC50 value smaller than […] were considered effective in this test.

Male Sprague-Dawley rats = test: Elevated plus-maze in rats; type: in vivo; conditions: p.o., 60 min after treatment, 5 min test, increase in time spent in or number of entries into the open arms
Description: The anxiolytic effect of the compounds according to the invention was investigated on rats according to the so-called elevated plus-maze test (S. Pelow, P. Chopin, S. E. File, J. Briley: Neurosci. Methods 14, p. 149 (1985)).
A wooden cross elevated to 50 cm above the floor, 15 cm wide with 100 cm long arms was used for the experiments. The sides and ends of two opposite arms of the cross were equipped with 40 cm high walls, however, the arms were open to the 15 cm×15 cm central area (closed arms). The two other opposite arms were not encircled by walls (open arms).
Male Sprague-Dawley rats weighing 200-220 g were used for the experiments. The animals were placed in the central area of the equipment 60 min after treatment and the following four parameters have been observed for the 5 min test time: […]
time spent in the open arms (sec), time spent in the closed arms (sec), number of entries into the open arms, number of entries into the closed arms.
The effect was expressed as percent increase in either the time spent in the open arms or number of entries into the open arms. MEDs (minimal effective doses) were determined for each compound.

SMILES	melting point	IC50 (5-HT1A receptors)	MED (minimal effective dose) (Male Sprague-Dawley rats)
CCC1(CCCCN2CC=C(c3ccc(Cl)cc3)CC2)C(=O)Nc2ccccc21 (stereo not drawn)	142 to 145 °C	–	–
CCC1(CCCCN2CC=C(c3cccc(Cl)c3)CC2)C(=O)Nc2ccc(F)cc21 (stereo not drawn)	112 to 114 °C	–	–
CCC1(CCCCN2CC=C(c3ccc(Cl)cc3)CC2)C(=O)Nc2ccc(F)cc21 (stereo not drawn)	146 to 148 °C	–	–
CCC1(CCCCN2CCc3sccc3C2)C(=O)Nc2ccccc21 (stereo not drawn) (as salt: hydrochloride) [Example 29, 3-[4-(6,7-Dihydro-4H-thieno[3,2-c]pyridin-5-yl)-butyl]-3-ethyl-1,3-dihydro-2H-indol-2-one monohydrochloride]	143 to 144 °C	–	–
CCC1(CCCCCN2CCc3sc(Cl)cc3C2)C(=O)Nc2ccccc21 (stereo not drawn) (as salt: hydrochloride) [Example 37, 3-[5-(2-Chloro-6,7-dihydro-4H-thieno[3,2-c]-pyridin-5-yl)-pentyl]-3-ethyl-1,3-dihydro-2H-indol-2-one monohydrochloride]	96 to 98 °C	–	–
CCC1(CCCCN2CC=C(c3ccc(F)cc3)CC2)C(=O)Nc2ccccc21 (stereo not drawn) (as salt: hydrochloride) [Example 39, 3-Ethyl-3-{4-[4-(4-fluorophenyl)-1,2,3,6-tetrahydropyridin-1-yl]-butyl}-1,3-dihydro-2H-indol-2-one monohydrochloride]	108 to 111 °C	–	–
CCC1(CCCCCN2CCc3sccc3C2)C(=O)Nc2ccccc21 (stereo not drawn) (as salt: oxalate) [Example 36, 3-[5-(6,7-Dihydro-4H-thieno[3,2-c]pyridin-5-yl)-pentyl]-3-ethyl-1,3-dihydro-2H-indol-2-one monooxalate]	193 to 195 °C	–	–
CCC1(CCCN2CCc3sccc3C2)C(=O)Nc2ccccc21 (stereo not drawn) [Example 23, 3-[3-(6,7-Dihydro-4H-thieno[3,2-c]pyridin-5-yl)-propyl]-3-ethyl-1,3-dihydro-2H-indol-2-one]	130 to 132 °C	–	–
CCC1(CCCN2CCc3sccc3C2)C(=O)Nc2ccc(Cl)cc21 (stereo not drawn) [Example 24, 5-Chloro-3-[3-(6,7-dihydro-4H-thieno[3,2-c]-pyridin-5-yl)-propyl]-3-ethyl-1,3-dihydro-2H-indol-2-one]	66 to 69 °C	–	–
CCC1(CCCCN2CCc3sccc3C2)C(=O)Nc2ccc(Cl)cc21 (stereo not drawn) [Example 26, 5-Chloro-3-[4-(6,7-dihydro-4H-thieno[3,2-c]-pyridin-5-yl)-butyl]-3-ethyl-1,3-dihydro-2H-indol-2-one monohydrochloride]	–	> 100 nM	–
CCC1(CCCCN2CCc3sccc3C2)C(=O)Nc2ccc(Br)cc21 (stereo not drawn) [Example 27, 5-Bromo-3-[4-(6,7-dihydro-4H-thieno[3,2-c]pyridin-5-yl)-butyl]-3-ethyl-1,3-dihydro-2H-indol-2-one]	149 to 151 °C	–	–
CC(C)CC1(CCCCN2CCc3sccc3C2)C(=O)Nc2ccccc21 (stereo not drawn) [Example 28, 3-[4-(6,7-Dihydro-4H-thieno[3,2-c]pyridin-5-yl)-butyl]-3-isobutyl-1,3-dihydro-2H-indol-2-one]	114 to 116 °C	–	–
CCC1(CCCCN2CCc3sccc3C2)C(=O)Nc2ccccc21 (stereo not drawn) [Example 29, 3-[4-(6,7-Dihydro-4H-thieno[3,2-c]pyridin-5-yl)-butyl]-3-ethyl-1,3-dihydro-2H-indol-2-one monohydrochloride]	–	> 100 nM	–
CCC1(CCCCN2CCc3sccc3C2)C(=O)Nc2ccc(C)cc21 (stereo not drawn) [Example 30, 3-[4-(6,7-Dihydro-4H-thieno[3,2-c]pyridin-5-yl)-butyl]-3-ethyl-5-methyl-1,3-dihydro-2H-indol-2-one]	138 to 140 °C	–	–
CCC1(CCCCN2CCc3sccc3C2)C(=O)Nc2c(Cl)cc(F)cc21 (stereo not drawn) [Example 33, 7-Chloro-3-[4-(6,7-dihydro-4H-thieno[3,2-c]-pyridin-5-yl)-butyl]-3-ethyl-5-fluoro-1,3-dihydro-2H-indol-2-one]	194 to 196 °C	–	–
CCC1(CCCCN2CCc3sc(Cl)cc3C2)C(=O)Nc2ccccc21 (stereo not drawn) [Example 34, 3-[4-(2-Chloro-6,7-dihydro-4H-thieno[3,2-c]-pyridin-5-yl)-butyl]-3-ethyl-1,3-dihydro-2H-indol-2-one]	117 to 119 °C	–	–
CCC1(CCCCN2CCc3sccc3C2)C(=O)Nc2cc(F)c(Cl)cc21 (stereo not drawn) [Example 35, 5-Chloro-3-[4-(6,7-dihydro-4H-thieno[3,2-c]-pyridin-5-yl)-butyl]-3-ethyl-6-fluoro-1,3-dihydro-2H-indol-2-one]	155 to 157 °C	–	–
CCC1(CCCCCN2CCc3sccc3C2)C(=O)Nc2ccccc21 (stereo not drawn) [Example 36, 3-[5-(6,7-Dihydro-4H-thieno[3,2-c]pyridin-5-yl)-pentyl]-3-ethyl-1,3-dihydro-2H-indol-2-one monooxalate]	–	> 100 nM	≦1.0 mg/kg p.o.
CCC1(CCCCCN2CCc3sc(Cl)cc3C2)C(=O)Nc2ccccc21 (stereo not drawn) [Example 37, 3-[5-(2-Chloro-6,7-dihydro-4H-thieno[3,2-c]-pyridin-5-yl)-pentyl]-3-ethyl-1,3-dihydro-2H-indol-2-one monohydrochloride]	–	> 100 nM	–
CCC1(CCCCN2CC=C(c3ccc(F)cc3)CC2)C(=O)Nc2ccccc21 (stereo not drawn) [Example 39, 3-Ethyl-3-{4-[4-(4-fluorophenyl)-1,2,3,6-tetrahydropyridin-1-yl]-butyl}-1,3-dihydro-2H-indol-2-one monohydrochloride]	–	–	0.01 mg/kg p.o.

Source: patent US20090281137A1, “INDOL-2-ONE DERIVATIVES FOR THE TREATMENT OF CENTRAL NERVOUS DISORDERS, GASTROINTESTINAL DISORDERS AND CARDIOVASCULAR DISORDERS” (priority 2004, published 2009)
